Source: patent US4210749A, “Substituted 1,2,4,5-tetrahydro-3H,3 benzazepines” (priority 1979, dated 1980)
Counter-ions that a name gives are not always drawn. Like-named read-outs stand apart in the source and are kept apart here.

Assays:
Type in all cases: in vivo
[1] = I.P. symptomatology (highest tolerated dose, median lethal dose), Table IV; settings: for LD50 / MTD: in vivo, ip; for MTD: read-out: HTD (highest tolerated dose)
sciatic block = assay: Local anesthetic sciatic block, Table IV; settings: 1%
[2] = Narcotic antagonism I.P., Table IV

With COc1ccc2c(c1)CC(C)NCC2 (stereo not shown) [Example 32, 8-Methoxy-2-methyl-1,2,4,5-tetrahydro-3H,3-benzazepine] the LD50 [1] was ~60 mg/kg, the MTD [1] was ~10 mg/kg and the “Local Anesthetic Sciatic Block” value (sciatic block) was “Positive”. For the same compound, the “Narcotic Antagonism” value [2] was “Negative”.

In the case of COc1ccc2c(c1)CCN(CC1CCC1)CC2 [Example 13, 3-Cyclobutylmethyl-7-methoxy-1,2,4,5-tetrahydro-3H,3-benzazepine], the LD50 [1] is reported as 80 mg/kg, the MTD [1] is reported as 30 mg/kg and the “Narcotic Antagonism” value [2] is reported as “Negative”.

In the case of COc1ccc2c(c1)CC(C)N(CC=Cc1ccccc1)CC2 (stereo not shown) [Example 44, 8-Methoxy-2-methyl-3-(3-phenylallyl)-1,2,4,5-tetrahydro-3H,3-benzazepine hydrochloride], the LD50 [1] is reported as 60 mg/kg, the MTD [1] is reported as 10 mg/kg and the “Local Anesthetic Sciatic Block” value (sciatic block) is reported as “Insoluable”. For the same compound, the “Narcotic Antagonism” value [2] was “Negative”.

With Oc1ccc2c(c1)CCN(Cc1ccco1)CC2 [Example 60, 3-Furfuryl-7-hydroxy-1,2,4,5-tetrahydro-3H,3-benzazepine hydrochloride] the LD50 [1] was ~200 mg/kg, the MTD [1] was 10 mg/kg and the “Local Anesthetic Sciatic Block” value (sciatic block) was “Positive”. For the same compound, the “Narcotic Antagonism” value [2] was “Negative”.

In the case of C[C@H]1Cc2ccccc2CCN1 (single isomer, unassigned) [Example 48, (-)-2-Methyl-1,2,4,5-tetrahydro-3H,3-benzazepine], the LD50 [1] is reported as 60 mg/kg, the MTD [1] is reported as 30 mg/kg and the “Local Anesthetic Sciatic Block” value (sciatic block) is reported as “Positive”. The “Narcotic Antagonism” value [2] was “Some”.

In the case of COc1ccc2c(c1)CCN(CC=C(C)C)CC2 [Example 3, 3-(3,3-Dimethylallyl)-7-methoxy-1,2,4,5-tetrahydro-3H,3-benzazepine], the LD50 [1] is reported as 50 mg/kg, the MTD [1] is reported as 30 mg/kg and the “Local Anesthetic Sciatic Block” value (sciatic block) is reported as “Positive”. The “Narcotic Antagonism” value [2] was “Negative”.

For C[C@@H]1Cc2ccccc2CCN1 (single isomer, unassigned) [Example 49, (+)-2-Methyl-1,2,4,5-tetrahydro-3H,3-benzazepine hydrochloride], the LD50 [1] was 200 mg/kg, the MTD [1] was 30 mg/kg and the “Local Anesthetic Sciatic Block” value (sciatic block) was “Positive”. The “Narcotic Antagonism” value [2] was “Negative”.

With COc1ccc2c(c1)CC(C)N(CC1CC1)CC2 (stereo not shown) [Example 42, 3-Cyclopropylmethyl-8-methoxy-2-methyl-1,2,4,5-tetrahydro-3H,3-benzazepine hydrochloride] the LD50 [1] was 60 mg/kg, the MTD [1] was 10 mg/kg and the “Narcotic Antagonism” value [2] was “Negative”.

In the case of COc1ccc2c(c1)CC(C)N(C)CC2 (single isomer, unassigned; (+)) [Example 62, (+)-8-Methoxy-2,3-dimethyl-1,2,4,5-tetrahydro-3H,3-benzazepine hydrochloride], the “HTD (highest tolerated dose)” value ([1]; hydrochloride) is reported as 10 mg/kg, the “Local Anesthetic Sciatic Block” value (sciatic block) is reported as “Positive” and the “Narcotic Antagonism” value [2] is reported as “Negative”.

In the case of COc1ccc2c(c1)CC(C)N(CC=C(C)C)CC2 (stereo not shown) [Example 33, 3-(3,3-Dimethylallyl)-8-methoxy-2-methyl-1,2,4,5-tetrahydro-3H,3-benzazepine hydrochloride], the LD50 [1] is reported as 50 mg/kg, the MTD [1] is reported as 1 mg/kg and the “Narcotic Antagonism” value [2] is reported as “Negative”.

For Oc1ccc2c(c1)CCN(CC1CC1)CC2 [Example 8, 3-Cyclopropylmethyl-7-hydroxy-1,2,4,5-tetrahydro-3H,3-benzazepine], the LD50 [1] was 30 mg/kg, the MTD [1] was 20 mg/kg and the “Local Anesthetic Sciatic Block” value (sciatic block) was “Positive”. The “Narcotic Antagonism” value [2] was “Positive”.

In the case of C[C@H]1Cc2ccccc2CCN1C (single isomer, unassigned) [Example 50, (+)-2,3-Dimethyl-1,2,4,5-tetrahydro-3H,3-benzazepine hydrochloride], the “LD50 (median lethal dose)” value [1] is reported as 25 mg/kg, the MTD [1] is reported as 10 mg/kg and the “Local Anesthetic Sciatic Block” value (sciatic block) is reported as “Positive”. The “Narcotic Antagonism” value [2] was “Negative”.

With COc1ccc2c(c1)CC(C)N(CCc1ccc(O)cc1)CC2 (stereo not shown) [Example 58, 3-(P-Hydroxyphenethyl-8-methoxy-2-methyl-1,2,4,5-tetrahydro-3H,3-benzazepine hydrochloride] the LD50 [1] was > 300 mg/kg, the MTD [1] was 1 mg/kg and the “Local Anesthetic Sciatic Block” value (sciatic block) was “Insoluble”. The “Narcotic Antagonism” value [2] was “Negative”.

For CCN1CCc2ccc(O)cc2CC1 [Example 21, 3-Ethyl-7-hydroxy-1,2,4,5-tetrahydro-3H,3-benzazepine], the LD50 [1] was 80 mg/kg, the MTD [1] was 30 mg/kg and the “Narcotic Antagonism” value [2] was “Positive”.

For COc1ccc2c(c1)CC(C)NCC2 (single isomer, unassigned; (-)) [Example 51, (-)8-Methoxy-2-methyl-1,2,4,5-tetrahydro-3H,3-benzazepine], the MTD [1] was 10 mg/kg, the “Local Anesthetic Sciatic Block” value (sciatic block) was “Positive” and the “Narcotic Antagonism” value [2] was “Negative”.

In the case of CC(C)=CCN1CCc2ccc(O)cc2CC1C (single isomer, unassigned; (-)) [Example 55, (-)-3-(3,3-Dimethylallyl)-8-hydroxy-2-methyl-1,2,4,5-tetrahydro-3H,3-benzazepine hydrochloride], the MTD [1] is reported as 10 mg/kg and the “Local Anesthetic Sciatic Block” value (sciatic block) is reported as “Positive”.

In the case of CC(C)=CCN1CCc2ccc(OC(=O)C34CC5CC(CC(C5)C3)C4)cc2CC1 [Example 6, 7-(Adamantanecarbonyloxy)-3-(3,3-dimethylallyl)-1,2,4,5-tetrahydro-3H,3-benzazepine hydrochloride], the LD50 [1] is reported as > 300 mg/kg, the MTD [1] is reported as 10 mg/kg and the “Narcotic Antagonism” value [2] is reported as “Positive”.

For COc1ccc(CCN2CCc3ccc(OC)cc3CC2C)cc1 (stereo not shown) [Example 61, 8-Methoxy-3-(p-methoxyphenethyl-2-methyl-1,2,4,5-tetrahydro-3H,3-benzazepine hydrochloride], the LD50 [1] was ~60 mg/kg, the MTD [1] was 3 mg/kg and the “Local Anesthetic Sciatic Block” value (sciatic block) was “Positive”. For the same compound, the “Narcotic Antagonism” value [2] was “Negative”.

For COc1ccc2c(c1)CC(C)N(C)CC2 (single isomer, unassigned; (-)) [Example 63, (-)-8-Methoxy-2,3-dimethyl-1,2,4,5-tetrahydro-3H,3-benzazepine hydrochloride], the “HTD (highest tolerated dose)” value ([1]; hydrochloride) was 3 mg/kg, the “Local Anesthetic Sciatic Block” value (sciatic block) was “Positive” and the “Narcotic Antagonism” value [2] was “Negative”.

With COc1ccc2c(c1)CC(C)NCC2 (single isomer, unassigned; (+)) [Example 53, (+)-8-Methoxy-2-methyl-1,2,4,5-tetrahydro-3H,3-benzazepine hydrochloride] the “HTD (highest tolerated dose)” value [1] was 10 mg/kg, the “Local Anesthetic Sciatic Block” value (sciatic block) was “Positive” and the “Narcotic Antagonism” value [2] was “Negative”.

With Oc1ccc2c(c1)CCNCC2 [Example 2, 7-Hydroxy-1,2,4,5-tetrahydro-3H,3-benzazepine] the LD50 [1] was 200 mg/kg, the MTD [1] was 10 mg/kg and the “Local Anesthetic Sciatic Block” value (sciatic block) was “Positive”. The “Narcotic Antagonism” value [2] was “Negative”.

With CC(C)=CCN1CCc2ccc(O)cc2CC1C (single isomer, unassigned; (+)) [Example 56, (+)-3-(3,3-Dimethylallyl)-8-hydroxy-2-methyl-1,2,4,5-tetrahydro-3H,3-benzazepine hydrochloride] the “HTD (highest tolerated dose)” value [1] was 10 mg/kg, the “Local Anesthetic Sciatic Block” value (sciatic block) was “Positive” and the “Narcotic Antagonism” value ([2]; hydrochloride) was “Negative”.

In the case of Oc1ccc2c(c1)CCN(C[C@@H]1C[C@H]1c1ccccc1)CC2 (relative stereo) [Example 30, 7-Hydroxy-3(trans-2-phenylcyclopropylmethyl)-1,2,4,5-tetrahydro-3H,3-benzazepine], the LD50 [1] is reported as > 1000 mg/kg, the MTD [1] is reported as 1000 mg/kg and the “Narcotic Antagonism” value [2] is reported as “Negative”.

For CC1Cc2cc(O)ccc2CCN1C (single isomer, unassigned; (+)) [Example 57, (+)-8-Hydroxy-2,3-dimethyl-1,2,4,5-tetrahydro-3H,3-benzazepine hydrochloride], the LD50 [1] was > 100 mg/kg, the MTD [1] was 10 mg/kg and the “Local Anesthetic Sciatic Block” value (sciatic block) was “Positive”.
